This passage reports solubility results from US20260103479A1, “PRODRUGS OF OPICAPONE” (BIAL- PORTELA & CA, S.A., priority 2022, published 2026).

The solubility is how much of the substance goes into solution per volume.

The structures appear in SMILES notation. ≈ marks a conversion by molar mass, not a printed value. Where a name gives a salt, the structure may show the parent alone.

One data set can be described thus: physchem. Conditions: water, thermodynamic from solid, Solubility in pure water.
A short description of data set [1]: Aqueous solubility in distilled (pure) water at room temperature. Conditions: thermodynamic from solid.
Description: (§1) The solubility studies were completed at room temperature. For the determination of the solubility increasing amounts of distilled water was added to 5 mg of the test sample until its complete dissolution of the product observed by naked eye.

Description for physchem: as §1

In the data set “physchem”, `Cc1c(Cl)c(C)[n+]([O-])c(Cl)c1-c1noc(-c2cc(OP(=O)(O)O)c(O)c([N+](=O)[O-])c2)n1` [Compound 3, 2,5-dichloro-3-(5-(4-hydroxy-3-nitro-5-(phosphonooxy)phenyl)-1,2,4-oxadiazol-3-yl)-4,6-dimethylpyridine 1-oxide, triammonia salt] gave a solubility of over 500 µg/mL.

On to `Cc1c(Cl)c(C)[n+]([O-])c(Cl)c1-c1noc(-c2cc(O)c(O)c([N+](=O)[O-])c2)n1` [Opicapone, 2,5-dichloro-3-(5-(3,4-dihydroxy-5-nitrophenyl)-1,2,4-oxadiazol-3-yl)-4,6-dimethylpyridine 1-oxide], for which the solubility in data set [1] lay in the range of 23 to 36 µg/mL (≈ 55.7 to 87.1 µM).
